The record followed here is ChEMBL document CHEMBL4368915, “Synthesis and Biological Investigation of Phenothiazine-Based Benzhydroxamic Acids as Selective Histone Deacetylase 6 Inhibitors” (J Med Chem, 2019).

Active and inactive are the calls of the source. The calls are words filed in the database; no cut-off is given here.

One series addresses CYP2C19 (Homo sapiens, UniProt P33261). The series is described as follows: Inhibition of human CYP2C19 in human liver microsomes at 10 uM relative to control. Type of series: ADME. In general terms: Microsomes from liver hold many membrane-bound enzymes, among them those of drug oxidation.
A further series deals with HepaRG. The series is described as follows: Cytotoxicity against human HepaRG cells assessed as cell viability at 100 uM after 24 hrs by CellTiter blue-reagent based assay relative to control. To be noted: heparg, 24 h, 100 µM. (Alamar Blue is a resazurin reagent that responds to reducing activity.)
For a further series, the target named is T1, CYP1A2 (Homo sapiens, UniProt P05177).
T1 sequence (P05177 whole entry): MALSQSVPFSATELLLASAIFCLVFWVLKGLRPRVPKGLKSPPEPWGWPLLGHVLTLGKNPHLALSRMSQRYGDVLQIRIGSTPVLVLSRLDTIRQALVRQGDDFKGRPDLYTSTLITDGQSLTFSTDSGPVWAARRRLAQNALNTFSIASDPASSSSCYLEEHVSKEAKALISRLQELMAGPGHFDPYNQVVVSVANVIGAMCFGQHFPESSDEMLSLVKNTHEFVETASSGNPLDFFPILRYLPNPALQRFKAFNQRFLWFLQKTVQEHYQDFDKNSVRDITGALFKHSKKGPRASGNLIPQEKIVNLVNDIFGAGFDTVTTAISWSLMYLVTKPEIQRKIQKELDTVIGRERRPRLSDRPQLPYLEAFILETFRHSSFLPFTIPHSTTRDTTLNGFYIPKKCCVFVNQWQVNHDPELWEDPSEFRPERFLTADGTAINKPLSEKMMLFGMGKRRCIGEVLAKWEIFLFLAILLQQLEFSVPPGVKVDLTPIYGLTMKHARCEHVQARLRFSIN
The series is described as follows: Inhibition of human CYP1A2 in human liver microsomes at 10 uM relative to control. Type of series: ADME.

For series [1], the system named is T-24. In words: Antiproliferative activity against human T24 cells assessed as inhibition of cell proliferation at 10 to 100 uM after 72 hrs by CellTiter blue-reagent based assay. The format is functional.
Series [2] deals with T-24. In words: Synergistic potentiation of Bortezomib-induced antiproliferative activity against human T24 cells assessed as effect on cell index, at 1 uM incubated for 24 hrs by cell impedance based assay. Type of series: functional.
Series [3] can be described thus: Intrinsic clearance in human liver microsomes at 2 uM by LC-MS/MS analysis. The format is ADME, Microsome.
A further series concerns the target T2, Histone deacetylase 8 (Homo sapiens, UniProt Q9BY41).
T2 sequence (Q9BY41 whole entry): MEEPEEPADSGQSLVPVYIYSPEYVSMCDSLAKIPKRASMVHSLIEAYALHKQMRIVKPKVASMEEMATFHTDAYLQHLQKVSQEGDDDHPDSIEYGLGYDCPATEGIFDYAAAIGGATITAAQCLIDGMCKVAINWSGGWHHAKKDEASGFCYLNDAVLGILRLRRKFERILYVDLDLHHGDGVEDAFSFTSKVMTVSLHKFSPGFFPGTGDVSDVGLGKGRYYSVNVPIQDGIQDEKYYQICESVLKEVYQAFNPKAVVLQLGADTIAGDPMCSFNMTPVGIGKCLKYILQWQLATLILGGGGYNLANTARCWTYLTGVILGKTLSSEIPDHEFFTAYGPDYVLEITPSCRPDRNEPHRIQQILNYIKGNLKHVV

Another series has as its target Histone deacetylase 1 (Homo sapiens, UniProt Q13547).
Another series deals with MDA-MB-231. In words: Antiproliferative activity against human MDA-MB-231 cells assessed as inhibition of cell proliferation at 10 to 100 uM after 72 hrs by CellTiter blue-reagent based assay. The format is functional.
Series [4] has as its target Histone deacetylase 4 (Homo sapiens) (UniProt P56524). The series is described as follows: Inhibition of recombinant N-terminal GST/His-tagged human HDAC4 (627 to 1084 residues) expressed in baculovirus expression system at 10 uM using fluorogenic ZMTFAL as substrate incubated for 90 mins by fluorescence assay relative to control.
The next series concerns the target CYP2D6 (Homo sapiens, UniProt P10635). The series is described as follows: Inhibition of human CYP2D6 in human liver microsomes at 10 uM relative to control. Type of series: ADME.
Another series has as its target CYP2C9 (Homo sapiens, UniProt P11712). In words: Inhibition of human CYP2C9 in human liver microsomes at 10 uM relative to control. Type of series: ADME.
For the next series, the system named is Huh-7. In words: Antiproliferative activity against human HuH7 cells assessed as inhibition of cell proliferation at 10 to 100 uM after 72 hrs by CellTiter blue-reagent based assay. Type of series: functional.
Series [5] in a line: Half life in human liver microsomes at 2 uM by LC-MS/MS analysis. Type of series: ADME, Microsome.
The nature of series [6]: Stability in human liver microsomes assessed as compound remaining at 2 uM measured up to 20 mins by LC-MS/MS analysis. Type of series: ADME, Microsome.

Sequence of CYP2C19 (P33261 whole entry): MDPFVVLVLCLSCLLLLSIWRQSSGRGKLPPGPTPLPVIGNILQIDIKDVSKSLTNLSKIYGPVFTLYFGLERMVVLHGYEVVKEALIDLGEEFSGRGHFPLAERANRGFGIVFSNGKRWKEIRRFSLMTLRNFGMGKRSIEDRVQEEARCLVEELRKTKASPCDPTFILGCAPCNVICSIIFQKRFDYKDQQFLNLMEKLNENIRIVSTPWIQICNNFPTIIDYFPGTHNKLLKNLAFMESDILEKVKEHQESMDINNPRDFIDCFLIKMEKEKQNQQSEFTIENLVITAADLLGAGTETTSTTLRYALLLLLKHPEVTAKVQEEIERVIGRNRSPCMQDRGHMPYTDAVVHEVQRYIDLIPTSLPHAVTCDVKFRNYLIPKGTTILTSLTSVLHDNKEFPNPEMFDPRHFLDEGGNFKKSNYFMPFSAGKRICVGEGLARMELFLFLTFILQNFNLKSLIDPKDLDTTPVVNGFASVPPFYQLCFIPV
Sequence of CYP2D6 (P10635 whole entry): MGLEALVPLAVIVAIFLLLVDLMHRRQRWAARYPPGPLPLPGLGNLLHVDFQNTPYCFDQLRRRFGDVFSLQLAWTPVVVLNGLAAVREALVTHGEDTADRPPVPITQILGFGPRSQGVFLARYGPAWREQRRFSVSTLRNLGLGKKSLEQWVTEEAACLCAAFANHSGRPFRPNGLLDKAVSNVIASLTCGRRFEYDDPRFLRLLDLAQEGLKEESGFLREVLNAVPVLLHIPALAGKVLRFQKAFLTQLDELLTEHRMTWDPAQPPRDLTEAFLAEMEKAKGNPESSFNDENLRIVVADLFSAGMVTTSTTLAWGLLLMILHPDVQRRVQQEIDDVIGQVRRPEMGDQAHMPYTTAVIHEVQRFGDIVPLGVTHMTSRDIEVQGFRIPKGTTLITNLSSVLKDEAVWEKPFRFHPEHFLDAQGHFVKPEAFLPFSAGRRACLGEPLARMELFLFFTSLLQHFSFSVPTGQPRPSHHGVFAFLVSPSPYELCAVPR
Sequence of CYP2C9 (P11712 whole entry): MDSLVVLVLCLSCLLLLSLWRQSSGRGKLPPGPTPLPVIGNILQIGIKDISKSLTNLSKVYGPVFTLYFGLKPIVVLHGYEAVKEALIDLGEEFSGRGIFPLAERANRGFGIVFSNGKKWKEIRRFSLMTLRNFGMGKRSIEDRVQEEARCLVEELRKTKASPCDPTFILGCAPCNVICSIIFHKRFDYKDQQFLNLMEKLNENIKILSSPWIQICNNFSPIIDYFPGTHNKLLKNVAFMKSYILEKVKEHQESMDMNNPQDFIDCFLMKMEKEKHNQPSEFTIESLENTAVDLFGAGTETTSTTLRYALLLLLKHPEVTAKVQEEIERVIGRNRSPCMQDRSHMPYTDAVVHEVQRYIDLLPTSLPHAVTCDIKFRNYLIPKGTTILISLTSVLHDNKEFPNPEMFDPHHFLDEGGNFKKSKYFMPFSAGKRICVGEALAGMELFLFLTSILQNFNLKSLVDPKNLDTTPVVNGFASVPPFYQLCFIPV
Sequence of Histone deacetylase 1 (Q13547 whole entry): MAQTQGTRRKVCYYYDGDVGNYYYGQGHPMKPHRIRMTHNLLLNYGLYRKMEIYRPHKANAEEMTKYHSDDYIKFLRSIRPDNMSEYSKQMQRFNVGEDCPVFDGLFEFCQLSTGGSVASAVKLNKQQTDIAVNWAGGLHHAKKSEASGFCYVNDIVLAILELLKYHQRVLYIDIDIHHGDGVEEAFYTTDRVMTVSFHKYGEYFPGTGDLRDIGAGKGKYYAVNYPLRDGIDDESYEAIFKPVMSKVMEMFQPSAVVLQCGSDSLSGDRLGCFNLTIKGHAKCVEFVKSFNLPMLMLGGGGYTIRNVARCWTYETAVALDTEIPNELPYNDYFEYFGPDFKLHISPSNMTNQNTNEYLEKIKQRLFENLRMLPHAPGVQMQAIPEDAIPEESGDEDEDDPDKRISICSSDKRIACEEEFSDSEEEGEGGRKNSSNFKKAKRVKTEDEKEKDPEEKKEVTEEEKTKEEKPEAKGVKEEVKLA
Sequence of Histone deacetylase 4 (Homo sapiens) (P56524 whole entry, the tested form may be a part): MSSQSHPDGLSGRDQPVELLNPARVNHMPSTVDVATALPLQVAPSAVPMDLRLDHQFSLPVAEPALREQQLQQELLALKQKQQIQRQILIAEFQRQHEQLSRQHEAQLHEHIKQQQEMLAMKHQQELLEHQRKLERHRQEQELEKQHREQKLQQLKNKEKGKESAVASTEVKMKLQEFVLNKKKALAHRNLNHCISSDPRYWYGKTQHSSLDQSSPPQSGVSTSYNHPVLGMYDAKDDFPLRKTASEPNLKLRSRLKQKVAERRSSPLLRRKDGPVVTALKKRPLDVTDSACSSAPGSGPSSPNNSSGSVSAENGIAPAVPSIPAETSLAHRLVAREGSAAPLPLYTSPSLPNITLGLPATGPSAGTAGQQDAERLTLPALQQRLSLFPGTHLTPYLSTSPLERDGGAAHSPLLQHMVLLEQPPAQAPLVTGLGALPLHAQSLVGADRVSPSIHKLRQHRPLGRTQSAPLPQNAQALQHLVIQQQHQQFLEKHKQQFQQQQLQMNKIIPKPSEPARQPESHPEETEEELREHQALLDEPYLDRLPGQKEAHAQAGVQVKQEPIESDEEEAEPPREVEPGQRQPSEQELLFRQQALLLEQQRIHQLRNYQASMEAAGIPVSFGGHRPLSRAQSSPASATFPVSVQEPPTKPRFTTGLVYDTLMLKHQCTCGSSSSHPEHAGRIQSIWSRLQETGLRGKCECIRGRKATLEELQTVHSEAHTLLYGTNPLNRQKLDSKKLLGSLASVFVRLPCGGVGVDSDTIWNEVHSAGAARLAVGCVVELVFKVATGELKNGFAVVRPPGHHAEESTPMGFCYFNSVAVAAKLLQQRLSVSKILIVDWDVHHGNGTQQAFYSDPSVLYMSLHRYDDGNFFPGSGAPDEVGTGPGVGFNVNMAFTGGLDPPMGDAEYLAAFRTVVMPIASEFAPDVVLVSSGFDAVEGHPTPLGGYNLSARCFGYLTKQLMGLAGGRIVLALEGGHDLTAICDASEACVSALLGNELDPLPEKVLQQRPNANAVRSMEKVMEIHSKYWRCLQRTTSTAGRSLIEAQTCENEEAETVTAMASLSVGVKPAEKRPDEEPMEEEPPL

Take `O=C(NO)c1ccc(CN2c3ccccc3Sc3cccnc32)cc1`: the inhibition at 10 µM on CYP2C19 was found to be 27.7%; against CYP1A2 it was 15.2%; at CYP2D6 it was 12%; on CYP2C9, 3.4%. Also, the Activity result with HepaRG is “Non-Toxic”. Moreover, the inhibition result with T-24 [1], in the series with MDA-MB-231 and in the series on Huh-7 was “Active” each time. Also, the result in the series with T-24 [2] was inactive. This molecule came in with a CLH in [3] of 11 µL/min/mg. Further, the IC50 against Histone deacetylase 8 was 3100 nM; at Histone deacetylase 1, 2690 nM. Moreover, the inhibition in [4] was below 20%. This molecule also came in with a t1/2 in series [5] of 2.47 h. Also, the Stability result in series [6] is “Stable”.

The inhibition is the drop in the measured response relative to a control, in per cent. The term IC50 denotes the concentration at which inhibition is half-maximal. Read a high IC50 as lower potency.
